{"source": "patent US20220409643A1", "about": "“ROR Gamma T Inhibitors and Topical Uses Thereof” (Dermira, inc., priority 2019, published 2022)"}
{"tested_on": "IL17A", "assay": "skin Resident Immune Cell Assay (sRICA), Th17 model, IL17A protein in media", "assay_type": "cell-based", "details": "100 uM solution in 1% DMSO/OD applied topically to human skin; media collected 24 hours after Th17 activation", "procedure": "(§1) A skin Resident Immune Cell Assay (sRICA) was used to test compounds for reduction of IL-17A protein upregulation in the Th17 sRICA model. In this model, human surgical skin waste was cultured in a transwell system, with the dermis in contact with cell culture media and the stratum corneum exposed to air. To perform the assay, each human skin sample was defatted and dermatomed to 750μm. Next, 8 mm punch biopsies were obtained and placed in a membrane transwell. The transwells were inserted into culture wells with complete media, and a cocktail of cytokines and antibodies were added to promote skin resident immune cell polarization.\n(§2) RORγt inhibitors were prepared as a 100 uM solution in 1% DMSO/OD. […] of the prepared topical solution was applied to sRICA wells prepared for topical drug evaluation. Drugs were allowed to penetrate the skin overnight, for up to 24 hours prior to Th17 activation. Media was collected 24 hours after Th17 activation for IL17A protein assessment. IL17A protein was evaluated using the Quanterix IL17A detection kit on the SiMoA platform (via CRO Translational Biosciences). There was significant upregulation of IL17A with Th17 activation. Each study was normalized to the % max of IL17A production (i.e. the average IL17A concentration of Th17 activated skin alone) was set to 100%, all other values (untreated no activation and treated samples) were obtained as a percentage of this. […]", "units": {"inhibition at 100 µM": "%", "Activity in sRICA (% inhibition of IL17A)": "%"}}
{"compound": "CCOCC(C)(C)c1c(F)cc(NC(=O)[C@H]2c3ccc(OC)cc3CCN2C(=O)c2cc(O)no2)cc1F", "note": "[(1R)-N-(4-(1-ethoxy-2-methylpropan-2-yl)-3,5-difluorophenyl)-2-((3-hydroxy-1,2-oxazol-5-yl)carbonyl)-6-methoxy-1,2,3,4-tetrahydro-isoquinoline-1-carboxamide]", "inhibition at 100 µM": 56.1}
{"compound": "COCc1ccc([C@@H](NC(=O)[C@@H]2CNC(=O)C2)C(=O)Nc2ccc(CC(C)(C)C)c(F)c2)cc1", "note": "[(3S)-N-((1R)-2-((4-(2,2-dimethylpropyl)-3-fluorophenyl)amino)-1-(4-(methoxymethyl)phenyl)-2-oxoethyl)-5-oxopyrrolidine-3-carboxamide]", "inhibition at 100 µM": 52.9}
{"compound": "COc1ccc2c(n1)CCN(C(=O)Cc1cc(O)no1)[C@H]2C(=O)Nc1ccc(C(C)(C)C)c(F)c1", "note": "[(5R)-N-(4-tert-butyl-3-fluorophenyl)-6-((3-hydroxy-1,2-oxazol-5-yl)acetyl)-2-methoxy-5,6,7,8-tetrahydro-1,6-naphthyridine-5-carboxamide]", "inhibition at 100 µM": 69.5}
{"compound": "COc1ccc2c(c1)CCN(C(=O)Cc1cc(O)no1)[C@H]2C(=O)Nc1cc(F)c(C(C)(C)COCC2CC2)c(F)c1", "note": "[(1R)-N-(4-(1-(cyclopropyl-methoxy)-2-methylpropan-2-yl)-3,5-difluorophenyl)-2-((3-hydroxy-1,2-oxazol-5-yl)acetyl)-6-methoxy-1,2,3,4-tetrahydro-isoquinoline-1-carboxamide]", "inhibition at 100 µM": 61.7}
{"compound": "Cn1ncc2cc([C@@H](NC(=O)[C@@H]3CNC(=O)C3)C(=O)Nc3ccc([Si](C)(C)C)c(F)c3)ccc21", "note": "[drawing 89, (3S)-N-(2-((3-fluoro-4-(trimethylsilyl)phenyl)amino)-1-(1-methyl-1H-indazol-5-yl)-2-oxoethyl)-5-oxopyrrolidine-3-carboxamide]", "Activity in sRICA (% inhibition of IL17A)": 36.72}
{"compound": "COCc1ccc([C@@H](NC(=O)Cc2cc(O)no2)C(=O)Nc2cc(F)c(C(C)(C)C)c(F)c2)cc1", "note": "[(2R)-N-(4-tert-butyl-3,5-difluorophenyl)-2-(((3-hydroxy-1,2-oxazol-5-yl)acetyl)amino)-2-(4-(methoxymethyl)phenyl)acetamide]", "inhibition at 100 µM": 26.3}
{"compound": "CC(C)n1c(=O)n(CC2CC2)c(=O)c2cc(NC(=O)N3CCC[C@@H](NC(=O)c4cc(F)ccc4F)C3)c(F)cc21", "note": "[(3R)-N-(3-(cyclopropylmethyl)-7-fluoro-1-isopropyl-2,4-dioxo-1,2,3,4-tetrahydroquinazolin-6-yl)-3-((2,5-difluorobenzoyl)amino)-piperidine-1-carboxamide]", "inhibition at 100 µM": 44.2}
{"compound": "COCc1ccc2c(c1)CCN(C(=O)Cc1cc(O)no1)[C@H]2C(=O)Nc1cc(F)c2c(c1)CCC2(C)C", "note": "[(1R)-N-(7-fluoro-1,1-dimethyl-2,3-dihydro-1H-inden-5-yl)-2-((3-hydroxy-1,2-oxazol-5-yl)acetyl)-6-(methoxymethyl)-1,2,3,4-tetrahydroisoquinoline-1-carboxamide]", "inhibition at 100 µM": 50.5}
{"compound": "COCc1ccc([C@@H](NC(=O)Cc2nnc(C)o2)C(=O)Nc2ccc(C(C)(C)C)c(F)c2)cc1", "note": "[(2R)-N-(4-tert-butyl-3-fluorophenyl)-2-(4-(methoxymethyl)phenyl)-2-(((5-methyl-1,3,4-oxadiazol-2-yl)acetyl)amino)acetamide]", "inhibition at 100 µM": 62}
{"compound": "COCc1ccc([C@@H](NC(=O)Cc2cc(O)no2)C(=O)Nc2ccc(C(C)(C)C)c(F)c2)cc1", "note": "[(2R)-N-(4-tert-butyl-3-fluorophenyl)-2-(((3-hydroxy-1,2-oxazol-5-yl)acetyl)amino)-2-(4-(methoxymethyl)phenyl)acetamide]", "inhibition at 100 µM": 68.1}
{"tested_on": "IL17A", "assay": "skin Resident Immune Cell Assay (sRICA), Th17 model, IL17A protein in media", "assay_type": "cell-based", "details": "Homo sapiens, 24 h, 100 uM solution in 1% DMSO/OD applied topically to human skin; media collected 24 hours after Th17 activation", "procedure": "as §1, §2", "units": {"inhibition at 100 µM": "%"}}
{"compound": "Cn1ncc2cc([C@@H](NC(=O)[C@@H]3CNC(=O)C3)C(=O)Nc3ccc([Si](C)(C)C)c(F)c3)ccc21", "note": "[drawing 79, (3S)-N-((1R)-2-((3-fluoro-4-(trimethylsilyl)phenyl)amino)-1-(1-methyl-1H-indazol-5-yl)-2-oxoethyl)-5-oxopyrrolidine-3-carboxamide]", "inhibition at 100 µM": 45.7}
{"compound": "COCc1ccc([C@@H](NC(=O)CCCC(=O)O)C(=O)Nc2cc(F)c([Si](C)(C)C)c(F)c2)cc1", "note": "[5-(((1R)-2-((3,5-difluoro-4-(trimethylsilyl)phenyl)amino)-1-(4-(methoxymethyl)phenyl)-2-oxoethyl)amino)-5-oxopentanoic acid]", "inhibition at 100 µM": 26.7}
{"compound": "COCc1ccc([C@@H](NC(=O)[C@@H]2CNC(=O)C2)C(=O)Nc2cc(F)c([Si](C)(C)C)c(F)c2)cc1", "note": "[(3S)-N-((1R)-2-((3,5-difluoro-4-(trimethylsilyl)phenyl)amino)-1-(4-(methoxymethyl)phenyl)-2-oxoethyl)-5-oxopyrrolidine-3-carboxamide]", "inhibition at 100 µM": 23.6}
{"compound": "COCc1ccc([C@@H](NC(=O)C2CNC(=O)C2)C(=O)Nc2ccc([Si](C)(C)C)c(F)c2)cc1", "note": "(stereo in doubt) [(3R)-N-((1R)-2-((3-fluoro-4-(trimethylsilyl)phenyl)amino)-1-(4-(methoxymethyl)phenyl)-2-oxoethyl)-5-oxopyrrolidine-3-carboxamide]", "inhibition at 100 µM": 75.7}
{"compound": "COCc1ccc([C@@H](NC(=O)Cc2cc(O)no2)C(=O)Nc2cc(F)c([Si](C)(C)C)c(F)c2)cc1", "note": "[(2R)-N-(3,5-difluoro-4-(trimethylsilyl)phenyl)-2-(((3-hydroxy-1,2-oxazol-5-yl)acetyl)amino)-2-(4-(methoxymethyl)phenyl)acetamide]", "inhibition at 100 µM": 53.9}
{"compound": "CCn1c(=O)n(CCCOC)c(=O)c2cc(NC(=O)CC(C)CC(=O)Nc3ccc(C#N)c(Cl)c3)ccc21", "note": "(centres unmarked) [N-(3-chloro-4-cyanophenyl)-N′-(1-ethyl-3-(3-methoxypropyl)-2,4-dioxo-1,2,3,4-tetrahydroquinazolin-6-yl)-3-methylpentanediamide]", "inhibition at 100 µM": 60.8}
{"compound": "COc1ccc([C@@H](NC(=O)[C@H]2CNC(=O)C2)C(=O)Nc2ccc([Si](C)(C)C)c(F)c2)cc1", "note": "[(3R)-N-((1R)-2-((3-fluoro-4-(trimethylsilyl)phenyl)amino)-1-(4-(methoxy)phenyl)-2-oxoethyl)-5-oxopyrrolidine-3-carboxamide]", "inhibition at 100 µM": 65.2}
{"compound": "CC[Si](C)(C)c1c(F)cc(NC(=O)[C@H]2c3ccc(COC)nc3CCN2C(=O)Cc2cc(O)no2)cc1F", "inhibition at 100 µM": 68.9}
{"compound": "COc1ccc2c(c1)CCN(C(=O)c1cc(O)no1)[C@H]2C(=O)Nc1ccc([Si](C)(C)C)c(F)c1", "note": "(stereo in doubt) [N-(3-fluoro-4-(trimethylsilyl)phenyl)-2-((3-hydroxy-1,2-oxazol-5-yl)carbonyl)-6-methoxy-1,2,3,4-tetrahydroisoquinoline-1-carboxamide]", "inhibition at 100 µM": 7.69}
{"compound": "COCc1ccc2c(c1)CCN(C(=O)CCCC(=O)O)[C@H]2C(=O)Nc1cc(F)c([Si](C)(C)C)c(F)c1", "note": "[5-((1R)-1-((3,5-difluoro-4-(trimethylsilyl)phenyl)carbamoyl)-6-methoxymethyl-3,4-dihydroisoquinolin-2(1H)-yl)-5-oxopentanoic acid]", "inhibition at 100 µM": 77.4}
{"compound": "COc1ccc2c(c1)CCN(C(=O)CCCC(=O)O)[C@H]2C(=O)Nc1cc(F)c([Si](C)(C)C)c(F)c1", "note": "[5-((1R)-1-((3,5-difluoro-4-(trimethylsilyl)phenyl)carbamoyl)-6-methoxy-3,4-dihydroisoquinolin-2(1H)-yl)-5-oxopentanoic acid]", "inhibition at 100 µM": 76.6}
{"compound": "Cn1ncc2cc(C(NC(=O)[C@@H]3CNC(=O)C3)C(=O)Nc3ccc([Si](C)(C)C)c(F)c3)ccc21", "note": "(stereo partly drawn) [(3S)-N-(2-((3-fluoro-4-(trimethylsilyl)phenyl)amino)-1-(1-methyl-1H-indazol-5-yl)-2-oxoethyl)-5-oxopyrrolidine-3-carboxamide]", "inhibition at 100 µM": 58.3}
{"compound": "COc1ccc2c(c1)CCN(C(=O)Cc1cc(O)no1)[C@H]2C(=O)Nc1ccc([Si](C)(C)C)c(C#N)c1", "note": "[(1R)-N-(3-cyano-4-(trimethylsilyl)phenyl)-2-((3-hydroxy-1,2-oxazol-5-yl)acetyl)-6-methoxy-1,2,3,4-tetrahydroisoquinoline-1-carboxamide]", "inhibition at 100 µM": 42.8}
{"compound": "COc1ccc([C@H](C(=O)Nc2ccc([Si](C)(C)C)c(F)c2)N(C)C(=O)c2cc(O)no2)cc1", "inhibition at 100 µM": 76.9}
{"compound": "COCc1ccc([C@@H](NC(=O)Cn2cnccc2=O)C(=O)Nc2cc(F)c([Si](C)(C)C)c(F)c2)cc1", "note": "[(2R)-N-(3,5-difluoro-4-(trimethylsilyl)phenyl)-2-(4-(methoxymethyl)phenyl)-2-(((6-oxopyrimidin-1(6H)-yl)acetyl)amino)acetamide]", "inhibition at 100 µM": 80}
{"compound": "COCc1ccc([C@@H](NC(=O)CNC(C)=O)C(=O)Nc2ccc([Si](C)(C)C)c(F)c2)cc1", "inhibition at 100 µM": 48.8}
{"compound": "COc1ccc([C@@H](NC(=O)c2cc(O)no2)C(=O)Nc2ccc([Si](C)(C)C)c(F)c2)cc1", "inhibition at 100 µM": 55.3}
{"compound": "COc1ccc([C@H](C(=O)Nc2cc(F)c([Si](C)(C)C)cc2F)N(C)C(=O)c2cc(O)no2)cc1", "note": "[N-((1R)-2-((2,5-difluoro-4-(trimethylsilyl)phenyl)amino)-1-(4-methoxyphenyl)-2-oxoethyl)-3-hydroxy-N-methyl-1,2-oxazole-5-carboxamide]", "inhibition at 100 µM": 18.2}
{"compound": "COCc1ccc([C@@H](NC(=O)Cc2nnc(C)o2)C(=O)Nc2ccc([Si](C)(C)C)c(F)c2)cc1", "note": "[(2R)-N-(3-fluoro-4-(trimethylsilyl)phenyl)-2-(4-(methoxymethyl)phenyl)-2-(((5-methyl-1,3,4-oxadiazol-2-yl)acetyl)amino)acetamide]", "inhibition at 100 µM": 35.5}
